In ChEMBL document CHEMBL1133626, “GRid-INdependent descriptors (GRIND): a novel class of alignment-independent three-dimensional molecular descriptors” (J Med Chem, 2000):

Tests used:
[1] = Kinetic inhibition constant was evaluated by measuring the inhibition of the glycogen phosphorylase (GP)
[2] = Binding affinity of the Corticosteroid-Binding Globulin Receptor with androsterone
[3] = Binding affinity of the Corticosteroid-Binding Globulin Receptor with androstenediol
[4] = target: T1, Corticosteroid-binding globulin (Homo sapiens) (UniProt P08185); assay: (§1) Binding affinity to the corticosteroid-binding globulin (CBG) receptor.
T1 sequence (whole entry): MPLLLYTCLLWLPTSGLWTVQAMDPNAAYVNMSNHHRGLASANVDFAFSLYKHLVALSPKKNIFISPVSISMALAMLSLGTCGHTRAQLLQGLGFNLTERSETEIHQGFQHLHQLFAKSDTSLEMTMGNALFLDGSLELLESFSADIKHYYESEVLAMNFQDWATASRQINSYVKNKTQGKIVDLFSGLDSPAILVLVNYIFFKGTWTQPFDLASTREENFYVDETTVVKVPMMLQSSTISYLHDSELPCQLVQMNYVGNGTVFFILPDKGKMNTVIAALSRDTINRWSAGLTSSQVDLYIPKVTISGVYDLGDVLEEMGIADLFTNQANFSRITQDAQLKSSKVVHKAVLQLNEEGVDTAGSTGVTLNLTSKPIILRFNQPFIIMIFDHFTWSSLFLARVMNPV

[5] = Binding affinity of the Corticosteroid-Binding Globulin Receptor with dehydroepiandrosterone
[6] = Binding affinity of the Corticosteroid-Binding Globulin Receptor with androstenedione
[7] = as §1
[8] = Binding affinity of the Corticosteroid-Binding Globulin Receptor with androstanediol
[9] = target: 5-hydroxytryptamine receptor 2A (Rattus norvegicus, UniProt P14842); assay: Kinetic inhibition constant evaluated by measuring serotonergic activity
Chain of 5-hydroxytryptamine receptor 2A (P14842 whole entry): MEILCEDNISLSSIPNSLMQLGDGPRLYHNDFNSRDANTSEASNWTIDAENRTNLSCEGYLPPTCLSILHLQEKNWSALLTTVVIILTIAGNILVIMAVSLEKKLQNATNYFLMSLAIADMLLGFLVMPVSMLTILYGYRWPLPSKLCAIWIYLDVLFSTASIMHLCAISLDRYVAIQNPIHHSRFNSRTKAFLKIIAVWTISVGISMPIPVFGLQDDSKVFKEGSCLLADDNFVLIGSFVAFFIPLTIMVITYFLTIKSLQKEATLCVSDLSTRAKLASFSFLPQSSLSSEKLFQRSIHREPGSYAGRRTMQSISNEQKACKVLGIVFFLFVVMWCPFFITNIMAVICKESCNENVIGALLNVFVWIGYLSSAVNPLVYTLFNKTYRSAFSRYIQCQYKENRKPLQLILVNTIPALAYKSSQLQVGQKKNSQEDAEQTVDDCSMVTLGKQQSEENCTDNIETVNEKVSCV

[10] = Binding affinity of the Corticosteroid-Binding Globulin Receptor with cortisol
[11] = Binding affinity of the Corticosteroid-Binding Globulin Receptor with corticosterone
[12] = Binding affinity of the Corticosteroid-Binding Globulin Receptor with deoxy-corticosterone
[13] = target: T1, Corticosteroid-binding globulin (Homo sapiens)

## N#CC[C@@H]1O[C@H](CO)[C@@H](O)[C@H](O)[C@H]1O
[1]
  pKi: 2.05
[2]
  Log K: 5.61

## NC(=O)C1OC(CO)C(O)C(O)C1O (stereo in doubt; 3)
[3]
  Log K: 5
[1]
  pKi: 3.36

## C[C@]12CCC(=O)C=C1CC[C@@H]1[C@@H]2C(=O)C[C@@]2(C)[C@H]1CC[C@]2(O)C(=O)CO
[4]
  Log K: 6.89

## C[C@]12CCC(=O)C=C1CC[C@@H]1[C@@H]2CC[C@]2(C)C(=O)CC[C@@H]12
[4]
  Log K: 5.76

## CC(=O)[C@H]1CC[C@H]2[C@@H]3CCC4=CC(=O)CC[C@]4(C)[C@H]3C(=O)C[C@]12C
[4]
  Log K: 6.78

## NN1C(=O)N[C@@]2(O[C@@H](CO)[C@@H](O)[C@H](O)[C@@H]2O)C1=O
[5]
  Log K: 5
[1]
  pKi: 3.84

## COC(=O)C1OC(CO)C(O)C(O)C1O (centres undefined)
[6]
  Log K: 5.76
[1]
  pKi: 2.55

## C[C@@H]1C[C@@]2(C)C(=CC1=O)CC[C@H]1[C@@H]3CC[C@](O)(C(=O)CO)[C@@]3(C)C[C@H](O)[C@@]12F
[4]
  Log K: 5.8

## C[C@]12C=CC(=O)C=C1CC[C@@H]1[C@@H]2[C@@H](O)C[C@@]2(C)[C@H]1CC[C@]2(O)C(=O)CO
[7]
  Log K: 6.72

## NC(=O)C1OC(CO)C(O)C(O)C1O (stereo in doubt; 2)
[8]
  Log K: 5
[1]
  pKi: 3.43

## C[C@]12CC[C@H]3[C@@H](CCC4=CC(=O)CC[C@@H]43)[C@@H]1CC[C@@H]2O
[4]
  Log K: 7.2

## C[C@]12CC[C@H](O)C[C@@H]1CC[C@@H]1[C@@H]2CC[C@]2(C)[C@@H](O)CC[C@@H]12
[4]
  Log K: 5

## O=C(c1ccc(F)cc1)C1CCN(CCC2CC3=CC=CC3C2=O)CC1 (centres undefined)
[9]
  Ki: 7.08 nM

## O=C1C(CCN2CCC(c3noc4cc(F)ccc34)CC2)CC2=CC=CC12 (centres undefined)
[9]
  Ki: 1.74 nM

## C[C@]12CC[C@H]3[C@@H](CCC4=CC(=O)CC[C@@]43C)[C@@H]1CC[C@@H]2C(=O)CO
[4]
  Log K: 7.65

## COC(=O)N[C@]1(C(N)=O)O[C@H](CO)[C@@H](O)[C@H](O)[C@H]1O
[10]
  Log K: 7.88
[1]
  pKi: 4.8

## C[C@]12CC[C@H](O)CC1=CC[C@@H]1[C@@H]2CC[C@]2(C)C(=O)CC[C@@H]12
[4]
  Log K: 5

## C[C@]12CCC(=O)C=C1CC[C@@H]1[C@@H]2CC[C@@]2(C)[C@H]1CC[C@]2(O)C(=O)CO
[7]
  Log K: 7.88

## CC(=O)C1[C@H](C)CC2C3CC=C4CC(=O)CCC4(C)C3CCC21C (some centres undefined)
[4]
  Log K: 6.25

## C[C@]12CC[C@@H]3c4ccc(O)cc4CC[C@H]3[C@@H]1C[C@@H](O)[C@@H]2O
[4]
  Log K: 5

## CC(=O)[C@H]1CC[C@H]2[C@@H]3CC=C4C[C@@H](O)CC[C@]4(C)[C@H]3CC[C@]12C
[4]
  Log K: 5.25

## CC(=O)[C@@]1(O)CC[C@H]2[C@@H]3CCC4=CC(=O)CC[C@]4(C)[C@H]3CC[C@@]21C
[4]
  Log K: 7.74

## C[C@]12C[C@H](O)[C@H]3[C@@H](CCC4=CC(=O)CC[C@@]43C)[C@@H]1CC[C@@H]2C(=O)CO
[4]
  Log K: 7.88

## NC(=O)N[C@H]1O[C@H](CO)[C@@H](O)[C@H](O)[C@H]1O
[11]
  Log K: 7.88
[1]
  pKi: 3.85

## O=C1CNC(=O)[C@@]2(N1)O[C@@H](CO)[C@@H](O)[C@H](O)[C@@H]2O
[12]
  Log K: 7.65
[1]
  pKi: 4.22

## C[C@]12CCC(=O)C=C1CC[C@@H]1[C@@H]2[C@@H](O)C[C@]2(C=O)[C@@H](C(=O)CO)CC[C@@H]12
[7]
  Log K: 6.28

## CC(=O)[C@@]1(O)CC[C@H]2[C@@H]3CC[C@@H]4C[C@H](O)CC[C@]4(C)[C@H]3CC[C@@]21C
[4]
  Log K: 5

## C[C@]12C[C@@H](O)[C@H]3[C@@H](CCC4=CC(=O)CC[C@@]43C)[C@@H]1CC[C@@H]2C(=O)CO
[7]
  Log K: 6.78

## CC(=O)[C@H]1CC[C@H]2[C@@H]3CCC4=CC(=O)CC[C@@H]4[C@H]3CC[C@]12C
[4]
  Log K: 7.12

## O=C(CCCN1CCN(CCC2CC3=CC=CC3C2=O)CC1)c1ccc(F)cc1 (centres undefined)
[9]
  Ki: 42.7 nM

## C[C@]12CCC(=O)C=C1CC[C@@H]1[C@@H]2[C@@H](O)C[C@@]2(C)[C@H]1CC[C@]2(O)C(=O)CO
[4]
  Log K: 7.88

## C[C@]12CC[C@H]3[C@@H](CCC4=CC(=O)CC[C@@]43C)[C@@H]1CC[C@@H]2O
[4]
  Log K: 6.72

## CC(=O)[C@H]1CC[C@H]2[C@@H]3CCC4=CC(=O)CC[C@]4(C)[C@H]3CC[C@]12C
[13]
  Log Ki: 7.38 mM

## CC(=O)OCC(=O)[C@@]1(O)CC[C@H]2[C@@H]3CCC4=CC(=O)CC[C@]4(C)[C@H]3[C@@H](O)C[C@@]21C
[4]
  Log K: 7.55

## CC(=O)[C@@]1(O)[C@H](O)C[C@H]2[C@@H]3CC=C4CC(=O)CC[C@]4(C)[C@H]3CC[C@@]21C
[4]
  Log K: 6.14

## C[C@]12CC[C@@H]3c4ccc(O)cc4CC[C@H]3[C@@H]1CC[C@@H]2O
[4]
  Log K: 5
